Measured values as given in patent publication US20020177543A1, “Method for determining the activity of uncoupling proteins (UCPs) by monitoring NAD(P)H consumption” (priority 2000, published 2002).

Experiments:
Control mitochondria = test: Respiration rate from oxygen consumption (oxygen electrode), Control mitochondria; assay type: biochemical, Saccharomyces cerevisiae; details: CONTROL mitochondria of S. cerevisiae; GDP 3 mM, palmitate 48 μM, FCCP 10 μM (uncoupled respiration); basal 144
UCP1 [1] = molecular target: T1, UCP1 (Rattus norvegicus, UniProt P04633); test: Respiration rate by monitoring NADH fluorescence (NADH consumption), mitochondria that express UCP1; assay type: biochemical; details: GDP 3 mM, palmitate 48 μM
T1 construct: made in house; host or cells: Saccharomyces cerevisiae W303, vector pYeDP-UCP (gal-cyc promoter); isolated mitochondria
T1 sequence (P04633 1-307): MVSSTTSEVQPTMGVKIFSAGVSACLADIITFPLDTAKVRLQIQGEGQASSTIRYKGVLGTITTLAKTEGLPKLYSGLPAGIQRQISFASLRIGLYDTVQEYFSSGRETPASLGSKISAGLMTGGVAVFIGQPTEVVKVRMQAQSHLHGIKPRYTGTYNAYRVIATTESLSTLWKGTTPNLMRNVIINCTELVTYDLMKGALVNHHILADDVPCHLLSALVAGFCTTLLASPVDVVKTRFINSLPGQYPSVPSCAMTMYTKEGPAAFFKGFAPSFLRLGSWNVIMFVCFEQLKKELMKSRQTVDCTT
Experimental: To isolate the mitochondria required for the subsequent experiments, yeasts of the strain Saccharomyces cerevisiae W303 that express UCP1 were inoculated into SP growth medium (0.67% nitrogen substrate, 0.1% casamino acids, 20 mg/ml tryptophan, 40 mg/ml adenine, 0.1% phosphate, 0.12% ammonium sulphate, 0.1% glucose, 2% lactic acid, pH 4.5) 36 hours before extraction of the mitochondria; 12 or 14 hours before extraction they were diluted in SG medium (0.67% nitrogen substrate, 0.1% casamino acids, 20 mg/ml tryptophan, 40 mg/ml adenine, 2% galactose pH 4.5) adjusting the optical density at 600 nm to between 0.3-0.4 absorbance units [Arechaga I, Raimbault S. et al., (1993) Cysteine residues are not essential for uncoupling protein function. Biochem. J. 296. 693-700]. […]
The second method, which is the object of the present invention, is based on determining the respiration rate by measuring the consumption of NAD(P)H. All the assays were performed on a 96-well micro-titre standardized plate (Nunc., Denmark). […] Fluorescence measurements were done using a POLAR star Galaxy plate reader (BMG Laboratories OmbH, Offenburg, Germany). […] Changes in the fluorescence signal were determined every 30 seconds in each well with an average of 6-9 readings for each measurement. […] From these values, fluorescence values for the suspension of mitochondria in the absence of NADH (blank) were subtracted. […]

UCP1 [2] = molecular target: T1, UCP1; test: Respiration rate from oxygen consumption (oxygen electrode), mitochondria that express UCP1; assay type: biochemical; details: UCP1 mitochondria of S. cerevisiae; GDP 3 mM, palmitate 48 μM, FCCP 10 μM (uncoupled respiration); basal 218
Experimental: To isolate the mitochondria required for the subsequent experiments, yeasts of the strain Saccharomyces cerevisiae W303 that express UCP1 were inoculated into SP growth medium (0.67% nitrogen substrate, 0.1% casamino acids, 20 mg/ml tryptophan, 40 mg/ml adenine, 0.1% phosphate, 0.12% ammonium sulphate, 0.1% glucose, 2% lactic acid, pH 4.5) 36 hours before extraction of the mitochondria; 12 or 14 hours before extraction they were diluted in SG medium (0.67% nitrogen substrate, 0.1% casamino acids, 20 mg/ml tryptophan, 40 mg/ml adenine, 2% galactose pH 4.5) adjusting the optical density at 600 nm to between 0.3-0.4 absorbance units [Arechaga I, Raimbault S. et al., (1993) Cysteine residues are not essential for uncoupling protein function. Biochem. J. 296. 693-700].
The mitochondria were prepared following a procedure based on that of Guerin et al., [Guerin B, Labbe P. Somlo M (1979) Preparation of yeast mitochondria (Saccharomyces cerevisiae) with good P/O and respiratory ratios Methods Enzymol. 55: 149-159]. The protoplasts are prepared by enzymatic digestion of the cell wall with cytohelicase and after their homogenization mitochondria are isolated by differential centrifugation [Arechaga I., Raimbault S. et al., (1993) Cysteine residues are not essential for uncoupling protein function. Biochem. J. 296. 693-700]. […]

Nc1nc2c(ncn2[C@@H]2O[C@H](COP(=O)(O)OP(=O)(O)O)[C@@H](O)[C@H]2O)c(=O)[nH]1 [GDP]
Oxygen consumption (Control mitochondria): 155 nmoles of oxygen consumed per minute and per mg of protein | Change in rate of NADH consumption compared to basal levels (in words) (UCP1 [1]): reduced compared to basal levels | Oxygen consumption (UCP1 [2]): 149 nmoles of oxygen consumed per minute and per mg of protein
